Reference: patent US8158792B2, “Spiropiperidines for use as tryptase inhibitors” (Janssen Pharmaceutica N.V., priority 2007, dated 2012)

target: human lung tryptase; assay: β-Tryptase In-Vitro Enzyme Assay; type: biochemical; settings: human lung tryptase 1 nM, substrate H-D-HHT-Ala-Arg-pNa 500 μM, pH 7.4, room temperature
Protocol: The β-tryptase assay was conducted with human lung tryptase (Cortex Biochem #CP3033) in an aqueous buffer (10 mM Tris, 10 mM Hepes, 150 mM NaCl, 0.1% PEG 8000, pH 7.4) using the chromogenic substrate H-D-HHT-Ala-Arg-pNa. […] Percent inhibition was calculated by comparing the initial reaction velocity of samples without inhibitor to those with inhibitor. The initial reaction velocities were analyzed using Microsoft Excel.

SMILES | IC50 [nM]
NCc1ccc2c(c1)C1(CCN(C(=O)CCc3cccc(I)c3)CC1)CO2 [Cpd 97, 1-(3-iodo-phenethyl)carbonyl-5′-aminomethyl-spiro[piperidine-4,3′-(2H)-benzo[b]furan]] | 1500
Cc1cccc(CCC(=O)N2CCC3(CC2)COc2ccc(CN)cc23)c1 [Cpd 98, 1-(3-methyl-phenethyl)carbonyl-5′-aminomethyl-spiro[piperidine-4,3′-(2H)-benzo[b]furan]] | 1700
COc1cccc(CC(=O)N2CCC3(CC2)COc2ccc(CN)cc23)c1 [Cpd 99, 1-(3-methoxy-benzyl)carbonyl-5′-aminomethyl-spiro[piperidine-4,3′-(2H)-benzo[b]furan]] | 580
NCc1ccc2c(c1)C1(CCN(C(=O)Cc3ccc4c(c3)OCO4)CC1)CO2 [Cpd 100, 1-benzodioxol-5-ylmethylcarbonyl-5′-aminomethyl-spiro[piperidine-4,3′-(2H)-benzo[b]furan]] | 680
COc1cccc(CCC(=O)N2CCC3(CC2)COc2ccc(CN)cc23)c1 [Cpd 101, 1-(3-methoxy-phenethyl)carbonyl-5′-aminomethyl-spiro[piperidine-4,3′-(2H)-benzo[b]furan]] | 2400
COc1ccc(CC(=O)N2CCC3(CC2)COc2ccc(CN)cc23)cc1C [Cpd 102, 1-(3-methyl-4-methoxy-benzyl)carbonyl-5′-aminomethyl-spiro[piperidine-4,3′-(2H)-benzo[b]furan]] | 600
CSc1cccc(CC(=O)N2CCC3(CC2)COc2ccc(CN)cc23)c1 [Cpd 103, 1-(3-methylthio-benzyl)carbonyl-5′-aminomethyl-spiro[piperidine-4,3′-(2H)-benzo[b]furan]] | 960
NCc1ccc2c(c1)C1(CCN(C(=O)CCc3ccc4c(c3)OCO4)CC1)CO2 [Cpd 104, 1-(benzodioxol-5-ylethyl)carbonyl-5′-aminomethyl-spiro[piperidine-4,3′-(2H)-benzo[b]furan]] | 4500
COc1ccc(CC(=O)N2CCC3(CC2)COc2ccc(CN)cc23)cc1OC [Cpd 105, 1-(3,4-dimethoxy-benzyl)carbonyl-5′-aminomethyl-spiro[piperidine-4,3′-(2H)-benzo[b]furan]] | 770
COc1cc(CC(=O)N2CCC3(CC2)COc2ccc(CN)cc23)ccc1OCc1ccccc1 [Cpd 106, 1-(3-methoxy-4-benzyloxy-benzyl)carbonyl-5′-aminomethyl-spiro[piperidine-4,3′-(2H)-benzo[b]furan]] | 610
NCc1ccc2c(c1)C1(CCN(C(=O)c3ccc(CCc4ccccc4)o3)CC1)CO2 [Cpd 107, 1-(5-phenethyl-furan-2-yl)carbonyl-5′-aminomethyl-spiro[piperidine-4,3′-(2H)-benzo[b]furan]] | 82
NCc1ccc2c(c1)C1(CCN(C(=O)C#Cc3ccccc3)CC1)CO2 [Cpd 108, 1-(phenylethynyl)carbonyl-5′-aminomethyl-spiro[piperidine-4,3′-(2H)-benzo[b]furan]] | 250
NCc1ccc2c(c1)C1(CCN(C(=O)/C=C/c3ccccc3)CC1)CO2 [Cpd 109, (E)-1-(phenylethenyl)carbonyl-5′-aminomethyl-spiro[piperidine-4,3′-(2H)-benzo[b]furan]] | 210
NCc1ccc2c(c1)C1(CCN(C(=O)c3cc4ccccc4s3)CC1)CO2 [Cpd 110, 1-benzothien-2-ylcarbonyl-5′-aminomethyl-spiro[piperidine-4,3′-(2H)-benzo[b]furan]] | 37
NCc1ccc2c(c1)C1(CCN(C(=O)/C=C/c3ccc(F)c(F)c3)CC1)CO2 [Cpd 111, (E)-1-(3,4-difluoro-phenylethenyl)carbonyl-5′-aminomethyl-spiro[piperidine-4,3′-(2H)-benzo[b]furan]] | 190
NCc1ccc2c(c1)C1(CCN(C(=O)/C=C/c3ccccc3)CC1)CO2 [Cpd 112, (E)-1-(phenylethenyl)carbonyl-5′-aminomethyl-spiro[piperidine-4,3′-(2H)-benzo[b]furan]] | 180
NCc1ccc2c(c1)C1(CCN(C(=O)/C=C/c3ccc4ccccc4c3)CC1)CO2 [Cpd 113, (E)-1-(naphthalene-2-ylethenyl)carbonyl-5′-aminomethyl-spiro[piperidine-4,3′-(2H)-benzo[b]furan]] | 130
NCc1ccc2c(c1)C1(CCN(C(=O)c3ccc(-c4ccccc4)s3)CC1)CO2 [Cpd 114, 1-(5-phenyl-thien-2-yl)carbonyl-5′-aminomethyl-spiro[piperidine-4,3′-(2H)-benzo[b]furan]] | 240
NCc1ccc2c(c1)C1(CCN(C(=O)c3cccc(Oc4ccccc4)c3)CC1)CO2 [Cpd 115, 1-(3-phenoxy-phenyl)carbonyl-5′-aminomethyl-spiro[piperidine-4,3′-(2H)-benzo[b]furan]] | 240
NCc1ccc2c(c1)C1(CCN(C(=O)/C=C/c3ccc(Cl)c(Cl)c3)CC1)CO2 [Cpd 116, (E)-1-(3,4-dichloro-phenylethenyl)carbonyl-5′-aminomethyl-spiro[piperidine-4,3′-(2H)-benzo[b]furan]] | 290
NCc1ccc2c(c1)C1(CCN(C(=O)/C=C/c3ccc(-c4ccccc4)cc3)CC1)CO2 [Cpd 117, (E)-1-(4-phenyl-phenylethenyl)carbonyl-5′-aminomethyl-spiro[piperidine-4,3′-(2H)-benzo[b]furan]] | 600
Cc1nc(C)c(C(=O)N2CCC3(CC2)COc2ccc(CN)cc23)s1 [Cpd 118, 1-(2,4-dimethyl-thiazol-5-yl)carbonyl-5′-aminomethyl-spiro[piperidine-4,3′-(2H)-benzo[b]furan]] | 110
Cc1ccc2nc(C(=O)N3CCC4(CC3)COc3ccc(CN)cc34)cn2c1 [Cpd 119, 1-(6-methyl-imidazo[1,2-a]pyridin-2-yl)carbonyl-5′-aminomethyl-spiro[piperidine-4,3′-(2H)-benzo[b]furan]] | 1400
NCc1ccc2c(c1)C1(CCN(C(=O)c3ccc(-c4ccccn4)s3)CC1)CO2 [Cpd 120, 1-(5-pyridin-2-yl-thien-2-yl)carbonyl-5′-aminomethyl-spiro[piperidine-4,3′-(2H)-benzo[b]furan]] | 130

Further lines, results first:

IC50 [nM] | SMILES
510 | NCc1ccc2c(c1)C1(CCN(C(=O)c3csc(-c4cccnc4)n3)CC1)CO2 [Cpd 121, 1-(2-pyridin-3-yl-thiazol-4-yl)carbonyl-5′-aminomethyl-spiro[piperidine-4,3′-(2H)-benzo[b]furan]]
760 | NCc1ccc2c(c1)C1(CCN(C(=O)c3csc(-c4ccncc4)n3)CC1)CO2 [Cpd 122, 1-(2-pyridin-4-yl-thiazol-4-yl)carbonyl-5′-aminomethyl-spiro[piperidine-4,3′-(2H)-benzo[b]furan]]
690 | Cc1nc(-c2ccccc2)sc1C(=O)N1CCC2(CC1)COc1ccc(CN)cc12 [Cpd 123, 1-(2-phenyl-4-methyl-thiazol-5-yl)carbonyl-5′-aminomethyl-spiro[piperidine-4,3′-(2H)-benzo[b]furan]]
1100 | Cc1nc(-c2cccnc2)sc1C(=O)N1CCC2(CC1)COc1ccc(CN)cc12 [Cpd 124, 1-(2-pyridin-3-yl-4-methyl-thiazol-5-yl)carbonyl-5′-aminomethyl-spiro[piperidine-4,3′-(2H)-benzo[b]furan]]
7500 | Cc1ccc(-c2nc(C)c(C(=O)N3CCC4(CC3)COc3ccc(CN)cc34)s2)cc1 [Cpd 125, 1-[2-(4-methyl-phenyl)-4-methyl-thiazol-5-yl]carbonyl-5′-aminomethyl-spiro[piperidine-4,3′-(2H)-benzo[b]furan]]
150 | NCc1ccc2c(c1)C1(CCN(C(=O)c3ccc4cc(Br)ccc4c3)CC1)CO2 [Cpd 126, 1-(6-bromo-naphthalen-2-yl)carbonyl-5′-aminomethyl-spiro[piperidine-4,3′-(2H)-benzo[b]furan]]
3700 | Cn1nc(C(F)(F)F)cc1-c1ccc(C(=O)N2CCC3(CC2)COc2ccc(CN)cc23)s1 [Cpd 127, 1-[5-(1-methyl-3-trifluoromethyl-pyrazol-5-yl)-thien-2-yl]carbonyl-5′-aminomethyl-spiro[piperidine-4,3′-(2H)-benzo[b]furan]]
170 | Cc1nc(-c2ccc(C(F)(F)F)cc2)sc1C(=O)N1CCC2(CC1)COc1ccc(CN)cc12 [Cpd 128, 1-[2-(4-trifluoromethyl-phenyl)-4-methyl-thiazol-5-yl]carbonyl-5′-aminomethyl-spiro[piperidine-4,3′-(2H)-benzo[b]furan]]
99 | NCc1ccc2c(c1)C1(CCN(C(=O)c3ccc(-c4cc(C(F)(F)F)ccc4Cl)o3)CC1)CO2 [Cpd 129, 1-[5-(2-chloro-5-trifluoromethyl-phenyl)-furan-2-yl]carbonyl-5′-aminomethyl-spiro[piperidine-4,3′-(2H)-benzo[b]furan]]
28 | NCc1ccc2c(c1)C1(CCN(C(=O)c3ccc(-c4ccccc4)o3)CC1)CO2 [Cpd 130, 1-(5-phenyl-furan-2-yl)carbonyl-5′-aminomethyl-spiro[piperidine-4,3′-(2H)-benzo[b]furan]]
72 | Cc1ccc(-c2ccc(C(=O)N3CCC4(CC3)COc3ccc(CN)cc34)o2)cc1 [Cpd 131, 1-[5-(4-methyl-phenyl)-furan-2-yl]carbonyl-5′-aminomethyl-spiro[piperidine-4,3′-(2H)-benzo[b]furan]]
26 | COc1ccc(-c2ccc(C(=O)N3CCC4(CC3)COc3ccc(CN)cc34)o2)cc1 [Cpd 132, 1-[5-(4-methoxy-phenyl)-furan-2-yl]carbonyl-5′-aminomethyl-spiro[piperidine-4,3′-(2H)-benzo[b]furan]]
81 | CC(C)(C)c1cc(C(=O)N2CCC3(CC2)COc2ccc(CN)cc23)cc(C(C)(C)C)c1 [Cpd 133, 1-(3,5-di-tert-butyl-phenyl)carbonyl-5′-aminomethyl-spiro[piperidine-4,3′-(2H)-benzo[b]furan]]
76 | NCc1ccc2c(c1)C1(CCN(C(=O)c3ccc(COc4cccc(Cl)c4)o3)CC1)CO2 [Cpd 134, 1-[5-(3-chloro-phenoxymethyl)-furan-2-yl]carbonyl-5′-aminomethyl-spiro[piperidine-4,3′-(2H)-benzo[b]furan]]
